Experimental data taken from patent US20260034123A1 (Cedilla Therapeutics, Inc., priority 2022, published 2026).

Key:
[1] = tested on: Kuramochi cells RB-WT; test: IncuCyte Kuramochi cell proliferation assay, RB-WT; type: cell-based; conditions: 72 hours, cell count
Outline: (§1)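 mApple-H2B-labelled Kuramochi cells were treated with a 10-point, half-log series (top 20 µM) and imaged at 0 and 72 h. Fluorescent nuclei were counted, and the 0–72 h fold change was normalized to DMSO wells. GI50 came from dose-response fits.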

[2] = target: T1, CDK2/Cyclin E1 (Homo sapiens, UniProt P24941); test: Caliper LabChip EZ Reader mobility shift assay; type: biochemical; conditions: 2.5 nM CDK2/Cyclin E1(14-475), 100 μM ATP, 30 min preincubation; read-out: Caliper Assay (CDK2/CCNE1): IC50
Description: Inhibition of CDK2/Cyclin E1 activity in the presence of compounds of the present disclosure was evaluated using a Caliper LabChip® EZ Reader mobility shift assay. In the assay, activated CDK2/Cyclin E1 catalyzes the phosphorylation of a fluorescently tagged peptide 5-FAM-QSPKKG-CONH2 (PerkinElmer, FL Peptide 18) which induces a difference in capillary electrophoresis mobility. The peptide substrate and product were measured, and the conversion ratio was used to determine the inhibition (as % activity and IC50 values) of CDK2/Cyclin E1. Reactions contained 50 mM HEPES pH 7.5, 10 mM MgCl2, 1 mM EDTA, 2 mM DTT, 0.01% Brij35, 0.5 mg/mL BSA, 0.1% DMSO, 2.5 nM CDK2/Cyclin E1(14-475), 100 μM ATP, and 1.5 μM fluorescent peptide substrate.
Dose titrations of inhibitors in 100% DMSO were combined with 3.25 nM CDK2/Cyclin E1(14-475) and 130 μM of ATP in reaction buffer. The mixtures were incubated for 30 minutes before the addition of fluorescent peptide substrate to initiate the kinase reaction. The final conditions were 2.5 nM CDK2/Cyclin E1(14-475), 100 μM ATP, and 1.5 μM fluorescent peptide. The reactions were stopped after 100 minutes with the addition of EDTA (6 mM final EDTA concentration). The stopped reactions were analyzed on a Caliper LabChip® EZ Reader 11. The conversion ratios were normalized to yield % activity, plotted against compound concentration, and fit to a four-parameter equation to determine the IC50 for each compound.

[3] = target: T1, CDK2/Cyclin E1; test: ADP-Glo Luminescent Kinase Assay (CDK2/E1-37C); type: biochemical; conditions: 0.18 nM CDK2/Cyclin E1, 100 μM ATP, Histone H1, 37° C.; read-out: ADPGLO (CDK2/E1-37C): IC50
Outline: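 Activated CDK2/Cyclin E1 (0.18 nM final) preincubated with compound 60 min at 37 °C, then reacted with 100 μM ATP and Histone H1 ([…]) for 90 min at 37 °C in HEPES pH 7.5 buffer. ADP-Glo luminescence normalized to % activity; IC50 from four-parameter fit.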

[4] = tested on: Kuramochi cells RB-KO; test: IncuCyte Kuramochi cell proliferation assay, RB-KO; type: cell-based; conditions: 72 hours, cell count, batch mean
Outline: as §1

SMILES	IC50 [2]	IC50 [3]	IC50 [1]	IC50 [4]
CC1(C)C[C@@H]1C(=O)N1CC2(C1)CN(c1cc(F)c(F)c3ncsc13)C[C@H]2COCc1cccc(C2CCC(F)(F)CC2)c1C(=O)O [I′-72, 2-((((S)-6-(4,5-difluorobenzo[d]thiazol-7-yl)-2-((S)-2,2-dimethylcyclopropane-1-carbonyl)-2,6-diazaspiro[3.4]octan-8-yl)methoxy)methyl)-6-(4,4-difluorocyclohexyl)benzoic acid]		≤ 0.5 µM	≤ 0.5 µM	> 10 µM
O=C(O)c1c(COCC2CN(C(=O)c3cnn(Cc4ccc(F)cc4)c3)CC23CN(C(=O)C2(C(F)(F)F)CC2)C3)cccc1-c1ccc(Cl)cc1F (stereo not drawn) [I′-73]		≤ 0.5 µM	≤ 0.5 µM	> 10 µM
O=C(O)c1ccccc1Cn1cc(C(=O)N2CC(COCc3cccc(C4CCC(C(F)(F)F)CC4)c3OC(F)F)C3(C2)CN(C(=O)C2(C(F)(F)F)CC2)C3)cn1 (stereo not drawn) [I′-74, 2-((4-(8-(((2-(difluoromethoxy)-3-(4-(trifluoromethyl)cyclohexyl)benzyl)oxy)methyl)-2-(1-(trifluoromethyl)cyclopropane-1-carbonyl)-2,6-diazaspiro[3.4]octane-6-carbonyl)-1H-pyrazol-1-yl)methyl)benzoic acid]		≤ 0.5 µM	> 10 µM	> 10 µM
CC1(C)C[C@@H]1C(=O)N1CC2(CN(C(=O)c3cnn(Cc4ccc(F)cc4)c3)CC2COCc2cccc(C3CCC(F)(F)CC3)c2C#N)C1 (stereo partly drawn) [I′-75, 2-(4,4-difluorocyclohexyl)-6-(((2-((S)-2,2-dimethylcyclopropane-1-carbonyl)-6-(1-(4-fluorobenzyl)-1H-pyrazole-4-carbonyl)-2,6-diazaspiro[3.4]octan-8-yl)methoxy)methyl)benzonitrile]		≤ 0.5 µM	> 10 µM	> 10 µM
CC(C)(C(=O)N1CC2(CN(C(=O)c3cnn(Cc4ccc(F)cc4)c3)CC2COCc2cccc(C3CCC(F)(F)CC3)c2C(=O)O)C1)C(F)(F)F (stereo not drawn) [I′-76]		≤ 0.5 µM	0.5 to 5 µM	5 to 10 µM
Cc1cc(F)ccc1-c1cccc(COCC2CN(C(=O)c3cnn(Cc4ccc(F)cc4)c3)CC23CN(C(=O)C2(C(F)(F)F)CC2)C3)c1C(=O)O (stereo not drawn) [I′-77, 4′-fluoro-3-(((6-(1-(4-fluorobenzyl)-1H-pyrazole-4-carbonyl)-2-(1-(trifluoromethyl)cyclopropane-1-carbonyl)-2,6-diazaspiro[3.4]octan-8-yl)methoxy)methyl)-2′-methyl-[1,1′-biphenyl]-2-carboxylic acid]		≤ 0.5 µM	5 to 10 µM	> 10 µM
CC1(C)C[C@@H]1C(=O)N1CC2(CN(C(=O)c3cnn(Cc4ccc(F)cc4)c3)CC2C#CCc2cccc(C3CCC(F)(F)CC3)c2C(=O)O)C1 (stereo partly drawn) [I′-78]		> 10 µM	> 10 µM	> 10 µM
CC(C)(C)OC(=O)c1c(COCC2CN(C(=O)c3cnn(Cc4ccc(F)cc4)c3)CC23CN(C(=O)[C@H]2CC2(C)C)C3)cccc1C1CCC(F)(F)CC1 (stereo partly drawn) [I′-79, tert-butyl 2-(4,4-difluorocyclohexyl)-6-(((2-((S)-2,2-dimethylcyclopropane-1-carbonyl)-6-(1-(4-fluorobenzyl)-1H-pyrazole-4-carbonyl)-2,6-diazaspiro[3.4]octan-8-yl)methoxy)methyl)benzoate]		≤ 0.5 µM	> 10 µM	> 10 µM
CC1(C)C[C@@H]1C(=O)N1CC2(CN(C(=O)c3cnn(Cc4ccc(F)cc4)c3)CC2COCc2cccc(C3CCC(F)(F)CC3)c2C(=O)O)C1 (stereo partly drawn) [I′-80, 2-(4,4-difluorocyclohexyl)-6-(((2-((S)-2,2-dimethylcyclopropane-1-carbonyl)-6-(1-(4-fluorobenzyl)-1H-pyrazole-4-carbonyl)-2,6-diazaspiro[3.4]octan-8-yl)methoxy)methyl)benzoic acid]		≤ 0.5 µM	0.5 to 5 µM	> 10 µM
CC1(C)C[C@@H]1C(=O)N1CC2(CN(C(=O)c3cnn(Cc4ccc(F)cc4)c3)CC2COCc2cccc(Br)c2C(=O)O)C1 (stereo partly drawn) [I′-81]		0.5 to 5 µM	> 10 µM	> 10 µM
O=C(O)c1c(O)cc(COCC2CN(C(=O)c3cnn(Cc4ccc(C(F)(F)F)cc4)c3)CC23CN(C(=O)C2(C(F)(F)F)CC2)C3)cc1C1CCC(F)(F)CC1 (stereo not drawn) [I′-82]		5 to 10 µM	> 10 µM	> 10 µM
CC(C)(C)OC(=O)c1c(COCC2CN(C(=O)c3cnn(Cc4ccc(F)cc4C(F)(F)F)c3)CC23CN(C(=O)C2(C(F)(F)F)CC2)C3)cccc1C1CCC(C(F)(F)F)CC1 (stereo not drawn) [I′-83]		0.5 to 5 µM	> 10 µM	> 10 µM
CC1(C)C[C@@H]1C(=O)N1CC2(CN(C(=O)c3cnn(Cc4ccc(F)cc4)c3)CC2COCc2cccc(C3CCC(C(F)(F)F)CC3)c2C(N)=O)C1 (stereo partly drawn) [I′-84, 2-(((2-((S)-2,2-dimethylcyclopropane-1-carbonyl)-6-(1-(4-fluorobenzyl)-1H-pyrazole-4-carbonyl)-2,6-diazaspiro[3.4]octan-8-yl)methoxy)methyl)-6-(4-(trifluoromethyl)cyclohexyl)benzamide]		≤ 0.5 µM	> 10 µM	> 10 µM
CC1(C)C[C@@H]1C(=O)N1CC2(CN(C(=O)c3cnn(Cc4ccc(F)cc4)c3)CC2COCc2cccc(C3CCC(C(F)(F)F)CC3)c2C(=O)O)C1 (stereo partly drawn) [I′-85, 2-(((2-((S)-2,2-dimethylcyclopropane-1-carbonyl)-6-(1-(4-fluorobenzyl)-1H-pyrazole-4-carbonyl)-2,6-diazaspiro[3.4]octan-8-yl)methoxy)methyl)-6-(4-(trifluoromethyl)cyclohexyl)benzoic acid]		≤ 0.5 µM	≤ 0.5 µM	5 to 10 µM
N#Cc1c(COCC2CN(C(=O)c3cnn(Cc4ccc(C(F)(F)F)cc4)c3)CC23CN(C(=O)C2(C(F)(F)F)CC2)C3)cccc1C1CCC(C(F)(F)F)CC1 (stereo not drawn) [I′-86]		0.5 to 5 µM	> 10 µM	> 10 µM

Second part, led by results:

IC50 [2]	IC50 [3]	SMILES	IC50 [1]	IC50 [4]
> 10 µM		O=C(c1cncs1)N1C[C@@H](COCc2cccc(-c3ccc(C4(C(F)(F)F)CC4)cc3)n2)C2(CN(CC3CCCO3)C2)C1 (stereo partly drawn) [Compound I-7, ((8S)-2-((tetrahydrofuran-2-yl)methyl)-8-(((6-(4-(1-(trifluoromethyl)cyclopropyl)phenyl)pyridin-2-yl)methoxy)methyl)-2,6-diazaspiro[3.4]octan-6-yl)(thiazol-5-yl)methanone]	> 10 µM	
> 10 µM		O=C(c1cncs1)N1C[C@@H](COCc2cccc(-c3ccc(C4CC4)cc3)n2)C2(CN(CC3CCCO3)C2)C1 (stereo partly drawn) [Compound I-8, ((8S)-8-(((6-(4-cyclopropylphenyl)pyridin-2-yl)methoxy)methyl)-2-((tetrahydrofuran-2-yl)methyl)-2,6-diazaspiro[3.4]octan-6-yl)(thiazol-5-yl)methanone]	> 10 µM	
> 10 µM		CC1(C)C[C@@H]1C(=O)N1CC2(CN(CC3CCCO3)C[C@H]2CNC(=O)c2cccc(-c3ccc(C(F)(F)F)cc3)n2)C1 (stereo partly drawn) [Compound I-9, N-(((8R)-2-((S)-2,2-dimethylcyclopropane-1-carbonyl)-6-((tetrahydrofuran-2-yl)methyl)-2,6-diazaspiro[3.4]octan-8-yl)methyl)-6-(4-(trifluoromethyl)phenyl)picolinamide]	> 10 µM	
1 to 10 µM		COc1ccccc1-c1cccc(C(=O)NC[C@@H]2CN(CC3CCCO3)CC23CN(C(=O)[C@H]2CC2(C)C)C3)n1 (stereo partly drawn) [Compound I-10, N-(((8R)-2-((S)-2,2-dimethylcyclopropane-1-carbonyl)-6-((tetrahydrofuran-2-yl)methyl)-2,6-diazaspiro[3.4]octan-8-yl)methyl)-6-(2-methoxyphenyl)picolinamide]	> 10 µM	
> 10 µM		O=C(c1cncs1)N1C[C@@H](COCc2cccc(-c3ccc(C(F)(F)F)cc3)n2)C2(CN(CC3CCCO3)C2)C1 (stereo partly drawn) [Compound I-11, ((8S)-2-((Tetrahydrofuran-2-yl)methyl)-8-(((6-(4-(trifluoromethyl)phenyl)pyridin-2-yl)methoxy)methyl)-2,6-diazaspiro[3.4]octan-6-yl)(thiazol-5-yl)methanone]	> 10 µM	
> 10 µM		O=C([C@H]1CC1(F)F)N1CC2(CN(Cc3cncs3)C[C@H]2COCc2cccc(-c3ccc(C(F)(F)F)cc3)n2)C1 [Compound I-12, ((R)-2,2-difluorocyclopropyl)((S)-6-(thiazol-5-ylmethyl)-8-(((6-(4-(trifluoromethyl)phenyl)pyridin-2-yl)methoxy)methyl)-2,6-diazaspiro[3.4]octan-2-yl)methanone]	> 10 µM	
